From US20150329864A1, “DESIGN OF OLIGONUCLEOTIDE ANALOGS AS THERAPEUTIC AGENTS” (SPRING BANK PHARMACEUTICALS, INC., priority 2010, published 2015)

What was measured:
HBV-3TC-R4 LMMV = type: cell-based; conditions: Hepatitis B virus
hepatitis B virus (HBV) = experiment: Effect of i.p. administration on hepatitis B virus in transgenic mice; type: in vivo
Experimental: Compound 5 was evaluated in transgenic mice expressing hepatitis B virus (HBV). […] Its activity was also similar to the adefovir dipivoxil (ADV) anti-HBV activity; however, the two compounds seemed to suppress different HBV DNA species. […] In contrast, Compound 5 appeared to indiscriminately remose all HBV DNA species, including the bands typically left by ADV, which may reflect a different mechanism of action other than classical chain termination. Serum HBe, liver HBs, and HBc were not affected by Compound 5 treatment, which is consistent in transgenic mice with compounds that block viral synthesis “downstream” from mRNA synthesis, such as blockage of polymerase activities. A minimal effective dosage was determined to be between 1.6-0.5 mg/kg/day, which was similar to ADV minimal effective dosage of 1.0 mg/kg/day (Table 8).

human hepatitis B virus [1] = experiment: Anti-HBV activity in the HBV transgenic mouse model, oral administration; type: in vivo, transgenic mice; conditions: 10 mg/kg/d, oral, once daily 14 days
Experimental: Compound 6k was evaluated for anti-HBV activity in the transgenic mouse model of HBV infection. Male transgenic mouse infected with HBV, with age ranging from 78 to 108 days were used. Compound 6k was initially evaluated at a single dose of 300 mg/kg, administered daily for 14 days by oral gavage. The compounds were administered in citric acid and adefovir dipivoxil was used as a positive control. A control group which received vehicle was used a negative control. Following the treatment, mice were sacrificed and liver tissue analyzed for HBV DNA using Southern blot analysis. The data was statistically evaluated using Kruskall-Wallis non-parametric ANOVA.
(§1) (a) Male and female transgenic mice (founder 1.3.32) were infected with human hepatitis B virus. Following infection, animals were orally administered Compound 6k, or a placebo of 0.05 M citric acid, pH 2.0 once daily for 14 days. Dosage was 300 mg/kg/d for Compound 6k. The positive control, ADV, was administered at 10 mg/kg/d.
as §1, with “Male” for “(a) Male”, “add,” for “acid,”, “Dosages were 100, 10.5 and 1” for “Dosage was 300”, “6K.” for “6k.”

HBV WT = experiment: HepG2.2.15 cell-based HBV assay, wild type; conditions: Hepatitis B virus, HBV WT, 9 daily doses; for EC50: read-out: EC50; for EC90: read-out: EC90
Experimental: Selected compounds were evaluated in in vitro cell-based HepG2.2.15 HBV assay.
Antiviral analysis. For the antiviral analyses, confluent cultures of 2.2.1.5 cells were maintained on 96-well flat-bottomed tissue culture plates in RPMI1640 medium with 2% fetal bovine serum. Cultures (6 per each test concentration on two replicate plates) were treated with 9 consecutive daily doses of the test compounds. Medium was changed daily with fresh test compounds. HBV nucleic acid and protein levels were measured 24 hours after the last treatment. Extracellular (virion) HBV DNA levels were assessed by quantitative blot hybridization. Intracellular HBV DNA levels were measured by quantitative Southern blot hybridization.
The uptake of neutral red dye was used to determine the relative level of toxicity 24 hours following the last treatment. The absorbance of internalized dye at […] (A510) was used for the semi-quantitative analysis. Values are presented as a percentage of the average A510 values (±standard deviations) in 9 separate cultures of untreated cells maintained on the 96-well plates seeded at the same time with the identical pool of stock cells used for the antiviral analyses and maintained in an identical manner. A total of 3 cultures were treated with each concentration of the test compound.

human hepatitis B virus [2] = experiment: Anti-HBV activity in the HBV transgenic mouse model, oral administration; type: in vivo, transgenic mice; conditions: p.o., qd × 14 d
HCV = experiment: Combination studies against HCV in replicon assays; type: cell-based; conditions: Hepatitis C virus; monotherapy; read-out: EC50 (uM), single drug
RIG-I = biological target: T1, RIG-I (Homo sapiens, UniProt O95786); experiment: RIG-I translocation on dsRNA, single-molecule PIFE assay; type: biochemical; conditions: PIFE assay
T1 sequence (O95786 1-925): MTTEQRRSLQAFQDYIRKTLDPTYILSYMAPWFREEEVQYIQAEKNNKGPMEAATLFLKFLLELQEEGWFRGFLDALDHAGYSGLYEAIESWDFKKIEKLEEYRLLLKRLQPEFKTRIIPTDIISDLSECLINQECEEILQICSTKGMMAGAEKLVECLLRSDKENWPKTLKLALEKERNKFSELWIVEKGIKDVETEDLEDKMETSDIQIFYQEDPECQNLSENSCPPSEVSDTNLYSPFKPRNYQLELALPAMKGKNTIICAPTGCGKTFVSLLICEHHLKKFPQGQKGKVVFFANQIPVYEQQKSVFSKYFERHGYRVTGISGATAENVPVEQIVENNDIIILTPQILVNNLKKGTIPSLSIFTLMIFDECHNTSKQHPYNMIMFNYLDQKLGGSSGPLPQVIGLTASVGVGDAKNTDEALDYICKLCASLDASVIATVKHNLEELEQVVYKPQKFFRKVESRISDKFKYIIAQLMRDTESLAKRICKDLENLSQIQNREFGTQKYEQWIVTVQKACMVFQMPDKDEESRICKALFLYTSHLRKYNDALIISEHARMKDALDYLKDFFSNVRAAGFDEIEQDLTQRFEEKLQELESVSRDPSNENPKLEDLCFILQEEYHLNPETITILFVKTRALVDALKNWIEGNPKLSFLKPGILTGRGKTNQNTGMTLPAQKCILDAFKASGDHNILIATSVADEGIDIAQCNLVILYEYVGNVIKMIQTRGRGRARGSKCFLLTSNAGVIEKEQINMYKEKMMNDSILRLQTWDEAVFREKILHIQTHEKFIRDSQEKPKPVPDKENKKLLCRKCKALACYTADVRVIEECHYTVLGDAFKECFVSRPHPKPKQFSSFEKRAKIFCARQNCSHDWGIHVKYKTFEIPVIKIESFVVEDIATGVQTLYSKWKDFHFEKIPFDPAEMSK
Experimental: An in vitro single-molecule fluorescence assay termed PIFE (protein induced fluorescence enhancement) was employed to monitor such movement (Myong, S. et al., Science, 323, 1070, 2009).
For quantitation of RIG-I translocation, Single molecule PIFE yields were estimated. Single molecule PIFE yields are obtained from several hundred molecules simultaneously, allowing statistically reliable data collection.
The translocation as above was carried out using different concentrations of nucleotide compound.
A standard dsRNA (25 bp) was used as a main substrate for RIG-I translocation assay. […] The ratio between rapid (stimulated) translocation and slow translocation would be accounted for in the estimation of compound strength. In order to quantify the affinity of the compound to RIG-I or to RNA substrate, various concentrations of the compound (1-100 μM range) were used in the assay. This enabled the calculation of the association/dissociation constant for each compound, which was a useful measure to apply in cell-based evaluation of compound potency.
The same translocation assay was used on dsRNA, which contains […] moiety with and without the compound.

[3] = Cytotoxicity by neutral red dye uptake in HCV replicon cultures; type: cell-based; conditions: human, AVA5 HCV replicon cell line (sub-genomic CON1, genotype 1b); single drug, Table 9; read-out: CC50
Experimental: Antiviral activity against HCV was assessed in a 3-day assay (Okuse, et al., 2005; Antiviral. Res. 65:23; Korba, et al., 2008, Antiviral Res. 77:56) using the stably-expressing HCV replicon cell line, AVA5 (sub-genomic (CON1), genotype 1b) (Blight, et al., 2000; Science 290:1972) maintained as sub-confluent cultures on 96-well plates. Antiviral activity was determined by blot hybridization analysis of intracellular HCV RNA (normalized to the level of cellular B-actin RNA in each culture sample). Cytotoxicity was assessed by neutral red dye uptake in cultures maintained in parallel plates.
EC50, EC90, and CC50 values were calculated by linear regression analysis (MS EXCEL®, QuattroPro®) using data combined from all treated cultures Korba & Gerin, 1992, Antivir. Res. 19:55; Okuse, et al., 2005, Antivir. Res. 65:23). […]
Combination treatments are conducted as previously described. Briefly, two agents were mixed together at a pre-determined concentration ratio. […] Analysis of drug interactions in the combination studies was determined by the use of the CALCUSYN program (Biosoft, Inc., Cambridge, United Kingdom). […]

**Q.** With CC(C)(C)C(=O)OCOP(=O)(COCCn1cnc2c(N)ncnc21)OCOC(=O)C(C)(C)C [ADV, adefovir dipivoxil, reference compound] as the molecule, how does the EC50 (HBV-3TC-R4 LMMV) read?
**A.** Its EC50 is 2.2 µM.

**Q.** What about the EC90 (HBV-3TC-R4 LMMV) of the same molecule?
**A.** The EC90 was 8.3 µM.

**Q.** And the “Liver HBV DNA (mean pg viral/μg cellular DNA ± stdev)” value (hepatitis B virus (HBV); 10 mg/kg/d, once daily 14 days)?
**A.** The value was 2.7 ± 1.4 (9) pg viral/μg cellular DNA.

**Q.** And the “Serum HBV DNA (mean log10 genome equivalents/mL serum ± stdev)” value (hepatitis B virus (HBV); 10 mg/kg/d, once daily 14 days)?
**A.** The value was 4.9 ± 0.4 (9) log10 genome equivalents/mL serum.

**Q.** What about the minimal effective dosage (hepatitis B virus (HBV); HBV transgenic mice) of the same molecule?
**A.** The minimal effective dosage was 1.0 mg/kg/day.

**Q.** What about the “Liver HBV RNA (log transcripts ± sd)” value (human hepatitis B virus [1]) of the same molecule?
**A.** Its value is 10.5 ± 0.4 log transcripts.

**Q.** And the “QPCR Liver HBV DNA (pg/μg mean ± sd)” value (human hepatitis B virus [1])?
**A.** The value was 1.7 ± 1.1 pg/µg.

**Q.** What about the “Southern blot Liver HBV DNA (pg/μg mean ± sd)” value (human hepatitis B virus [1]) of the same molecule?
**A.** Its value is 0.9 ± 1.1 pg/µg.

**Q.** And the EC50 (HBV WT)?
**A.** Its EC50 is 1.5 µM.

**Q.** And the EC90 (HBV WT)?
**A.** The EC90 was 7 µM.

**Q.** What about the “Liver HBV DNA Southern blot (pg/μg mean ± sd)” value (human hepatitis B virus [2]; 0.032 mg/kg/d) of the same molecule?
**A.** The value was 8.3 ± 11.3 (3) pg/μg.

**Q.** What about the “Liver HBV DNA Southern blot (pg/μg mean ± sd)” value (human hepatitis B virus [2]; 0.10 mg/kg/d) of the same molecule?
**A.** Its value is 15.6 ± 13.7 (4) pg/μg.

**Q.** Which EC50 (HCV) does the source give for NC(=O)c1ncn([C@@H]2O[C@H](CO)[C@@H](O)[C@H]2O)n1 [Ribavirin] here?
**A.** Its EC50 is over 30 µM.

**Q.** For CO[C@H]1C(OP(=O)(O)OC[C@H]2O[C@@H](n3cnc4c(N)ncnc43)CC2O)[C@@H](COP(=O)(O)OP(=O)(O)OP(=O)(O)O)O[C@H]1n1ccc(=O)[nH]c1=O (some centres unmarked) [SB 80], which “RIG-I translocation on dsRNA (activity in words)” value (“RIG-I translocation on dsRNA” for short) (RIG-I) is on record?
**A.** Its value is “varying degrees of RIG-I translocation”.

**Q.** For CCC[C@H](NC(=O)[C@@H]1[C@H]2CCC[C@H]2CN1C(=O)[C@@H](NC(=O)[C@@H](NC(=O)c1cnccn1)C1CCCCC1)C(C)(C)C)C(=O)C(=O)NC1CC1 [Vertex (telaprevir), telaprevir, reference compound], which EC50 (HCV) is on record?
**A.** Its EC50 is 0.25 µM.

**Q.** What about the CC50 at 3 day [3] of the same molecule?
**A.** Its CC50 at 3 day is under 80 µM.

**Q.** For CC(C)[C@H](N)C(=O)O[C@@H]1[C@@H](CO)O[C@@H](n2ccc(N)nc2=O)[C@]1(C)O [2C MeCyt (NM 283)], which EC50 (HCV) is on record?
**A.** The EC50 was 1.4 µM.

**Q.** Which EC50 (HBV-3TC-R4 LMMV) does the source give for Nc1ccn([C@@H]2CS[C@H](CO)O2)c(=O)n1 [Compound 3TC, Lamivudine] here?
**A.** Its EC50 is over 100 µM.

**Q.** And the EC90 (HBV-3TC-R4 LMMV)?
**A.** The EC90 was over 100 µM.

**Q.** What about the EC50 (HBV WT) of the same molecule?
**A.** Its EC50 is 0.2 µM.

**Q.** What about the EC90 (HBV WT) of the same molecule?
**A.** The EC90 was 0.7 µM.

**Q.** For CO[C@H]1C(OP(=O)(O)OC[C@H]2O[C@@H](n3cnc4c(N)ncnc43)CC2O)[C@@H](CO)O[C@H]1n1ccc(=O)[nH]c1=O (some centres unmarked) [SB 70], which “RIG-I translocation on dsRNA” value (RIG-I) is on record?
**A.** Its value is “varying degrees of RIG-I translocation”.

**Q.** Which “RIG-I translocation on dsRNA” value (RIG-I) does the source give for Nc1ncnc2c1ccn2[C@H]1CC(OP(=O)(O)OC[C@H]2O[C@@H](n3cnc4c(N)ncnc43)CC2O)[C@@H](COP(=O)(O)OP(=O)(O)OP(=O)(O)O)O1 (some centres unmarked) [SB 90] here?
**A.** The value was “varying degrees of RIG-I translocation”.
